Experimental data published in PMC6530213, “Monitoring flux in signalling pathways through measurements of 4EBP1-mediated eIF4F complex assembly” (BMC Biology, 2019).
Blank lines part the entries; values can stand above or below the molecule they belong to.

Legend:
[1] = tested on: eIF4E:eIF4G^604–646 complex; assay: NanoBit eIF4E:eIF4G^604–646 protein complementation assay in HEK293 cells; assay type: cell-based; settings: for Extent of disruption of NanoBit signal / eIF4F complex: HEK293, relative to eIF4G YLL-LgBit binding control or maximal dose of Torin
Method: (§1) Opaque 96-well plates were seeded with 20,000 HEK293 cells per well in DMEM and 10% FCS. Transfections in 96-well plate format were performed using FUGENE6 (Roche) with 100 ng of the indicated plasmid vectors per well as outlined in the manufacturer’s instructions (Fig. 1). Twenty-four hours after transfection, the medium was replaced with 100 μl of Opti-MEM I cell media containing 0% FCS with no added red phenol (Thermo Fisher Scientific) and luminescence activity assayed (as outlined in “NanoBit and cell viability experiments” section). Transfections utilising 4EBP1 constructs were performed with either 50 ng of the indicated construct or empty vector.
(§2) Twenty-four hours prior to transfection, cells (HEK293, PANC-1 or PC-3) were seeded at a cell density of 800,000 cells per well of a six-well plate (Thermo Fisher Scientific). Transfections in six-well plates were performed using Lipofectamine 3000 (Thermo Fisher Scientific) with 3 μg of the indicated plasmid vectors per well according to the manufacturer’s instructions. For knockdown experiment, siRNA Ctrl or 4EBP1 at a final concentration of 100 nM were included in the transfection mixture. Transfections utilising GFP and GFP-MYC contained 1 μg of each vector or empty vector, respectively. In the case of transfections utilising any of the 4EBP1 constructs described, only 0.5 μg of each vector or empty vector was used, respectively. After a 24- or 48-h (as indicated in the figure legends) incubation period, the medium was removed and cells were washed with PBS saline. Cells were then either lysed directly for immunoprecipitation experiments or were trypsinised and re-suspended in Opti-MEM media with 0% FCS to perform NanoBit and cell viability experiments in a 96-well format.
(§3) Either HEK293, PC-3 or PANC-1 cells were spun down at 1000 rpm for 5 min at room temperature. Supernatant was then discarded, and cells re-suspended to a density of to 220,000 cells per millilitre in Opti-MEM I cell media containing 0% FBS with no added red phenol. Then 90 μl of the cell re-suspension was added to the wells of a white opaque 96-well plate. Compounds were then titrated onto the 96-well plate using a suitable twofold dilution series from a 10× stock solution containing 10% v/v DMSO. Control wells were also treated with a 10% DMSO only stock solution to yield a final residual DMSO concentration of 1% v/v. The 96-well plates were then incubated for 4 h at 37 °C, with 5% CO2. Wells were then treated with a solution of Nano-Glo live substrate, which was prepared as per the manufacturer’s instructions. The plates were then shaken for 1 min at 22 °C and luminescence assessed after additional 50 min using an Envision Multi-Plate reader (Perkin-Elmer). Plates were then multiplexed with CellTiter-GLO 2.0 reagent (PROMEGA) and cellular viability determined according to the manufacturer’s instruction. NanoBit titration data was used to determine IC50 values for drug potency by fitting 4 parameter logistic curves using GraphPad Prism 7.0.

[2] = target: T1, eIF4E:eIF4G^604–646 complex (Homo sapiens, UniProt P06730); assay: as above; assay type: cell-based; settings: HEK293, 4 h, normalised to DMSO and to full-length NanoLuc counter-screen; read-out: IC50, NanoBit eIF4E:eIF4G^604–646 signal
T1 construct: linked either to full-length eIF4E or the eIF4G^604–646 fragment; expressed in transfected cells; host or cells: HEK293
Method: as §1, §2, §3

HEK293 cells = assay: Cell viability by intracellular ATP (CellTiter-GLO) in HEK293 cells; assay type: cell-based; settings: HEK293, 4-h treatment
Method: as §3

eIF4E-eIF4G interface = settings: published value; read-out: in vitro Kd; cited from earlier work
[3] = tested on: full-length NanoLuc luciferase; assay: Full-length NanoLuc luciferase counter-screen in HEK293 cells; assay type: cell-based; settings: HEK293 transfected with full-length NanoLuc
[4] = tested on: eIF4E S209 phosphorylation; assay: AlphaScreen Surefire eIF4E S209 phosphorylation assay in PC-3 cells; assay type: cell-based; settings: PC3 cells, 4E-BP1 protein levels high, normalised to GAPDH, read-out: pEIF4E SureFire (IC50)
Method: (§4) Ninety-six-well plates were seeded at 30,000 cells per well with non-transfected PC-3, PANC-1 or HKEK293 cells in DMEM with 10% FCS and incubated overnight. Cells were then washed with PBS and the media replaced with OPTI-MEM containing no serum. Cells were then treated with the indicated compounds. Controls were performed with DMSO vehicle treatments. Four hours post treatments, cells were lysed with 50 μl of passive lysis buffer (PerkinElmer) for 15 min and 10 μl of lysate from each well was transferred into a white bottom 384-well plate. GAPDH and pS209 eIF4E levels were assessed according to the manufacturer’s instructions (PerkinElmer) for each sample. Luminescence was measured using an Envision Multiplate reader (PerkinElmer).

[5] = tested on: eIF4E:eIF4G^604–646 complex; assay: NanoBit eIF4E:eIF4G^604–646 protein complementation assay in PC-3 cells; assay type: cell-based; settings: for Activity in NanoBit system: PC-3 cells, 4 h
Method: as §2, §3

[6] = tested on: eIF4E S209 phosphorylation; assay: AlphaScreen Surefire eIF4E S209 phosphorylation assay in PANC-1 cells; assay type: cell-based
Method: as §4

[7] = tested on: eIF4E:eIF4G^604–646 complex; assay: NanoBit eIF4E:eIF4G^604–646 protein complementation assay in PANC-1 cells; assay type: cell-based
Method: as §2
as §3, with “Wells were then treated with a solution of Nano-Glo live substrate, which was prepared as per the manufacturer’s instructions.” left out, “NanoBit titration data was used to determine IC50 values for drug potency by fitting 4 parameter logistic curves using GraphPad Prism 7.0.” left out

PC-3 cells = assay: Cell viability by intracellular ATP (CellTiter-GLO) in PC-3 cells; assay type: cell-based; settings: NanoBit co-transfected PC-3 cells, 4 h
Method: as §3

[8] = HEK293, 4 h treatment, read-out: IC50, NanoBit eIF4E:eIF4G^604–646 signal

T1 sequence (P06730 2-217, one chain of several): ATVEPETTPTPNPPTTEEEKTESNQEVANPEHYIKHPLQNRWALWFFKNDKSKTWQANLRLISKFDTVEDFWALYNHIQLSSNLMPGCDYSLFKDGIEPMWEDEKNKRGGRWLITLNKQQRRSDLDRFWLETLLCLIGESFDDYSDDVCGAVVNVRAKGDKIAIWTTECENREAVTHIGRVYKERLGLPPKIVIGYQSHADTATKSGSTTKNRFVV

IC50 [1, 8]: 2.6 ± 1.8 µM
Structure (SMILES): O=C(Nc1ccc2[nH]nc(-c3ccncc3)c2c1)[C@@H]1CCN(CC(=O)N2CCN(c3ccc(-c4ncccn4)cc3)CC2)C1 [SCH772984]
Effect on eIF4F disruption in combination with Ipasertib titration ([1]; HEK293, SCH-772984 constant at 1 μM): additive effect

IC50 ([1]; HEK293, 4 h, read-out: apparent IC50, NanoBit eIF4E:eIF4G^604–646 signal): 0.008 ± 0.0007 µM
Structure (SMILES): Cn1c(=O)n(-c2ccc(C(C)(C)C#N)cc2)c2c3cc(-c4cnc5ccccc5c4)ccc3ncc21 [BEZ235]
Attenuation of potency by siRNA-mediated knockdown of 4EBP1 ([1]; HEK293, si4EBP1 versus siCtrl): substantially reduced | Extent of disruption of NanoBit signal / eIF4F complex [1]: achieved maximal inhibition of eIF4F activity | Decrease in potency on overexpression of GFP-MYC ([1]; HEK293 co-transfected with GFP-MYC versus GFP control): over an order of magnitude | Effect of siRNA 4EBP1 knockdown on activity ([5]; PC3 cells, si4EBP1 versus siCtrl): strongly attenuated | Activity in NanoBit system [5]: mid-nanomolar range | Activity in NanoBit system ([7]; 4 h): dramatically attenuated

NanoBit eIF4E:4G (IC50, μM) ([5]; PC3 cells, 4E-BP1 protein levels high): No Inhibition | NanoBit eIF4E:4G (IC50, μM) ([7]; 4E-BP1 protein levels low): No Inhibition
Structure (SMILES): Nc1ncnc2n[nH]c(Nc3ccc(F)cc3)c12 [CGP57380]
Effect on NanoBit luminescence signal in combination with Ipasertib versus Ipasertib alone ([1]; HEK293, CGP57380 at constant concentrations, 4 h): did not lead to a larger decrease of the luminescence signal | IC50 [4]: 3 ± 1.7 µM | Activity in NanoBit system [5]: no decrease in the luminescence signal | Effect on cell viability (PC-3 cells): no decrease in the luminescence signal or decrease in cell viability | Decrease in ability to prevent phosphorylation of eIF4E, PANC1 versus PC-3 ([6]; PANC1 cells compared with PC-3): twofold | IC50 ([6]; PANC cells, 4E-BP1 protein levels low, normalised to GAPDH, read-out: pEIF4E SureFire (IC50)): 6.2 ± 1.3 µM

Second part, the molecule before the results:

Structure (SMILES): CC(C)NC[C@@H](C(=O)N1CCN(c2ncnc3c2[C@H](C)C[C@H]3O)CC1)c1ccc(Cl)cc1 [Ipasertib]
IC50 [1, 8]: 0.17 ± 0.024 µM

Structure (SMILES): CC(C)Nc1cc(-c2c[nH]c(C(=O)N[C@H](CO)c3cccc(Cl)c3)c2)c(Cl)cn1 [Ulixertinib]
IC50 [1, 8]: 4.7 ± 1.8 µM

Structure (SMILES): O=C(O)c1ccc(N2C(=O)/C(=C\c3ccc(-c4ccc([N+](=O)[O-])cc4)o3)C=C2c2ccccc2)cc1 [4E1RCat]
IC50 [2]: 0.6 ± 0.15 µM | Extent of disruption of NanoBit signal / eIF4F complex [1]: neither achieved complete disruption of the signal | Effect on cell viability (intracellular ATP) (HEK293 cells): observed to have an effect | Kd (eIF4E-eIF4G interface): 3.2 µM | Inhibition of full-length luciferase signal (counter-screen) [3]: Non-specific inhibition of the luciferase signal

Structure (SMILES): CO[C@H]1C[C@@H]2CC[C@@H](C)[C@@](O)(O2)C(=O)C(=O)N2CCCC[C@H]2C(=O)O[C@H]([C@H](C)C[C@@H]2CC[C@@H](O)[C@H](OC)C2)CC(=O)[C@H](C)/C=C(\C)[C@@H](O)[C@@H](OC)C(=O)[C@H](C)C[C@H](C)/C=C/C=C/C=C/1C [Rapamycin]
IC50 [1, 8]: 6.88 ± 0.88 µM | Effect on cell viability (intracellular ATP) (HEK293 cells): neither Rapamycin, Torin nor PP242 affected the cells adversely

Structure (SMILES): O=C(O)C(Cc1ccccc1[N+](=O)[O-])=NNc1nc(-c2ccc(Cl)c(Cl)c2)cs1 (mixture of isomers) [4EGi-1]
Extent of disruption of NanoBit signal / eIF4F complex [1]: neither achieved complete disruption of the signal | Effect on cell viability (intracellular ATP) (HEK293 cells): only 4ER1Cat was observed to have an effect | Kd (eIF4E-eIF4G interface): 25 µM | Inhibition of full-length luciferase signal (counter-screen) [3]: Non-specific inhibition of the luciferase signal

Structure (SMILES): CCC(=O)N1CCN(c2ccc(-n3c(=O)ccc4cnc5ccc(-c6cnc7ccccc7c6)cc5c43)cc2C(F)(F)F)CC1 [Torin]
IC50 [1, 8]: 0.06 ± 0.01 µM | IC50 ([4]; Homo sapiens, PC-3): 0.1 ± 0.02 µM | Effect on cell viability (intracellular ATP) (HEK293 cells): neither Rapamycin, Torin nor PP242 affected the cells adversely | IC50 ([5]; PC3 cells, 4E-BP1 protein levels high, read-out: NanoBit eIF4E:4G (IC50)): 0.02 ± 0.01 µM | pEIF4E SureFire (IC50, μM) ([6]; PANC cells, 4E-BP1 protein levels low, normalised to GAPDH): No Inhibition | IC50 ([7]; 4E-BP1 protein levels low, read-out: NanoBit eIF4E:4G (IC50)): 0.13 ± 0.03 µM

Structure (SMILES): CC(C)n1nc(-c2cc3cc(O)ccc3[nH]2)c2c(N)ncnc21 [PP242]
Effect on cell viability (intracellular ATP) (HEK293 cells): neither Rapamycin, Torin nor PP242 affected the cells adversely
